The record followed here is US20220211681A1, “COMPOSITIONS AND METHODS FOR PREVENTING INFLAMMATORY CONDITIONS” (Trustees of Tufts College, priority 2019, published 2022).

For experiment [1], the system named is IL-6. The experiment is described as follows: Plasma IL-6 by V-PLEX Proinflammatory Panel 1 (mouse) Kit. The conditions noted are these: vs obese control; combination p=0.07. The experiment is classed as in vivo, FVB mice. The source says: (§1) Frozen fecal samples obtained in the colon upon euthanasia and then measured by Mouse S100A8/S100A9 Heterodimer DuoSet ELISA according to manufacturer's instructions (R&D Systems, Minneapolis, Minn.) and normalized by protein concentrations. Data are shown as the mean±SE, Different superscript letters in the bar charts indicate significant differences (p<0.05) by one-way analysis of variance (ANOVA) with Tukey's test.
(§2) Determination of pro-inflammatory cytokines in plasma and calprotectin in feces: Plasma samples were then used for determination IL-1β, IL-6, and TNT-α concentrations by V-PLEX Proinflammatory Panel 1 (mouse) Kit on a chemiluminescence platform (MesoScale Discovery (MSD), Rockville, Md., USA) according to the manufacturer's instructions. For fecal calprotectin measures, frozen fecal samples obtained in the colon upon euthanasia were lysed in ice-cold PBS containing 1% BSA, 0.05% Tween20 and protease inhibitor. Protein concentrations were determined using the BCA method. Fecal calprotectin levels were measured by Mouse S100A8/S100A9 Heterodimer DuoSet ELISA according to manufacturer's instructions (R&D Systems, Minneapolis, Minn.) and normalized by protein concentrations.

Experiment [2] concerns PI3K. The experiment is described as follows: Western blot of p-PI3K/PI3K in colonic mucosa. In kind it is in vivo, FVB mice. The text has this: (§3) Each lane contained colonic mucosa collected from two individual mice that were pooled for immunoblot analysis (n=6). Data are representative of two independent experiments. Band intensity was normalized to Lamin B1 (nuclear fraction) or β-actin (whole tissue lysate) and measured by Quantity One 1-D Analysis Software (Bio-Rad). Data are shown as the mean±SE. Multiple comparisons with Hochberg method were employed to control the False Discovery Rate. Different superscript letters in the bar charts indicate significant differences (p<0.05) by one-way analysis of variance (ANOVA) with Tukey's test.
(§4) Western blot analyses: The nuclear and cytoplasmic fractions were prepared using the Nuclear Extraction Kit (Abeam) according to the manufacturer's instructions and subjected to Western blot analysis. Protein concentrations were determined using the BCA method. Briefly, equal amount of proteins (50 μg) were resolved over 4-12% SDS-polyacrylamide gel electrophoresis and transferred to nitrocellulose membranes. […] Band intensity was normalized to Lamin B1 (nuclear fraction) and measured by Quantity One 1-D Analysis Software (Bio-Rad, Hercules, Calif., USA).
(A western blot detects proteins with antibodies after separation by electrophoresis.)

Experiment [3] concerns calprotectin. The experiment is described as follows: Fecal calprotectin by Mouse S100A8/S100A9 Heterodimer DuoSet ELISA. In kind it is in vivo, FVB mice. The conditions noted are these: vs obese control.
From the text: as §1, §2
(In general: ELISA stands for enzyme-linked immunosorbent assay.)

Experiment [4] concerns colonic tumors. The experiment is described as follows: Colonic tumorigenesis in HFD-fed, AOM-treated FVB mice. In kind it is in vivo. The text has this:
Animals, diet and dosage information: The animal protocol was approved by the Institutional Animal Care and Use Committee of Tufts University (42015-155). Male FVB mice (4 weeks old) were obtained from the Jackson Laboratory (Bar Harbor, Me., USA), and were given free access to food (AIN-93G) and water for one week. The high-fat diet (HFD, D12450B) and low-fat diet (LFD, D12492) contained 60% and 10% of their calories as lard, respectively (Research Diets, diet details: Supplementary Tables 1, 2). […] One week after the sixth AOM injection, mice were randomized to receive 1 of 5 experimental diets: 1) LFD control, 2) […], 3) HFD containing 0.2% CUR (wt %), […], as pyridoxine HO), and 5) HFD containing both agents […]. There were 21 mice in each group. Body composition was determined by Echo-900 MRI (Houston, Tex., USA) at 21 weeks after arrival. All mice were sacrificed by isoflurane asphyxiation at 22 weeks after arrival. The liver and spleen were collected and weighed.
The dose of CUR (0.2 wt %) used in this study is equivalent to approximately 1 g/day for human dietary intake in a 60 kg adult based on equivalent surface area dosage conversion method^(30). The dose of B6 used is at 4-times the basal requirement (supplemented level) for mice. […] The colons were excised, opened longitudinally, rinsed with ice cold PBS containing protease and phosphatase inhibitors (pH 7.4) and carefully inspected under a dissection microscope. The number and size of tumors in the colons were recorded. The sizes of tumors were determined by the following formula: tumor volume (mm^3)=L×W×[(L+W)/2], where L is the length and W is the width of the tumors. Tumors and one 2-3 mm length piece of mid-colon from each mouse were fixed in 10% buffered formalin (pH 7.4) for 24 h for further histopathologic and immunohistochemical (IHC) analysis. The opened colon, spread out on a glass plate sitting atop crushed ice, was then gently scraped using glass microscope slides and the mucosa thus obtained was stored at −80° C. for future analyses. The pathology of the colonic tumors was characterized by a rodent histopathologist at the Harvard Rodent Histopathology Core (Boston, Mass., USA) who was blinded to the diet groups, and the tumors were graded as either non-neoplastic, adenomas or invasive cancers. The tumor data reported below includes only those confirmed to be either adenomas or cancers.
Statistical analyses: Data are presented as means±standard error (SE) for the indicated number of independently performed experiments. All statistical analyses were performed using SAS Version 9.3 (SAS Institute, Cary, N.C., USA). […] The tumor incidence was statistically calculated using the chi-square test. […]

For experiment [5], the system named is β-catenin. Nature of the experiment: Western blot of nuclear β-catenin in colonic mucosa (Wnt signaling). In kind it is in vivo, FVB mice. The conditions noted are these: colonic mucosa nuclear fraction, p<0.03.
From the text: as §3, §4

SMILES strings stand for the structures.

As for `Cc1ncc(CO)c(CO)c1O.Cl` [B6, pyridoxine hydrochloride], in experiment [1], the “Plasma IL-6 level (in words)” value was “non-significant reduction”. Also, the “Suppression of PI3K activation (in words)” value in experiment [2] is recorded as “did not cause a significant suppression”. In experiment [3], the “Suppression of fecal calprotectin (in words)” value is on record as “did not cause a significant suppression”. For the same molecule, in experiment [4] (HFD-fed, AOM-treated FVB mice, agent in diet), the Tumor incidence turned out to be 59%. In addition, the “Tumor multiplicity (Tumors per mouse)” value in experiment [4] (HFD-fed, AOM-treated FVB mice, agent in diet (CUR 0.2% w/w, B6 24 mg/kg), mean ± SE) is reported as 0.95 ± 0.22^ab. The “Tumor burden (Total volume of tumors per mouse, mm^3)” value in experiment [4] (HFD-fed, AOM-treated FVB mice, agent in diet, mean ± SE) is recorded as 17.19 ± 7.38^ab mm^3. For the same molecule, the “Suppression of colorectal tumorigenesis (in words)” value in experiment [4] (vs HFD obese control) is recorded as “neither CUR nor B6 alone was sufficient to suppress colorectal tumorigenesis”. Also, the “Level of nuclear β-catenin in comparison to the obese control (in words)” value in experiment [5] was “reduced level of nuclear β-catenin”.
